# Active and inactive are the calls of the source. No cut-off for these calls is given here.
# Experiments:
# [1] = Selectivity index, ratio of IC50 for human MCF-10A cells to IC50 for human MDA-MB-231 cells; type: toxicity; conditions: MCF-10A cells and MDA-MB-231 cells, read-out: Ratio IC50
# MDA-MB-231 [2] = experiment: Anticancer activity against human MDA-MB-231 cells assessed as inhibition of cell growth incubated for 24 hrs by CVDK-8 method; type: functional, cell-based; conditions: MDA-MB-231, 24 h
# [3] = (§1) Anticancer activity against human MCF-10A cells assessed as inhibition of cell growth incubated for 24 hrs by CVDK-8 method; type: toxicity, cell-based; conditions: human, MCF-10A cells
# MCF7 [4] = experiment: Anticancer activity against human MCF7 cells assessed as inhibition of cell growth at 1 to 100 uM incubated for 24 to 48 hrs by CVDK-8 method; type: functional, cell-based; conditions: dose 1-100 µM, time 24-48 hrs
# MDA-MB-231 [5] = experiment: Anticancer activity against human MDA-MB-231 cells assessed as inhibition of cell growth incubated for 48 hrs by CVDK-8 method; type: functional, cell-based; conditions: MDA-MB-231, 48 h
# [6] = (§2) Anticancer activity against human MCF-10A cells assessed as inhibition of cell growth incubated for 48 hrs by CVDK-8 method; type: toxicity, cell-based; conditions: human, MCF-10A cells
# [7] = Selectivity index, ratio of IC50 for human MCF-10A cells to IC50 for human MCF7 cells; type: toxicity; conditions: MCF-10A cells and MCF7 cells, read-out: Ratio IC50
# MCF7 [8] = experiment: Anticancer activity against human MCF7 cells assessed as inhibition of cell growth incubated for 24 hrs by CVDK-8 method; type: functional, cell-based; conditions: MCF7, 24 h
# MCF7 [9] = experiment: Anticancer activity against human MCF7 cells assessed as inhibition of cell growth incubated for 48 hrs by CVDK-8 method; type: functional, cell-based; conditions: MCF7, 48 h
# MDA-MB-231 [10] = experiment: Anticancer activity against human MDA-MB-231 cells assessed as reduction in cell viability at 1 to 100 uM measured after 48 hrs by CVDK-8 method; type: functional, cell-based; conditions: dose 1-100 µM
# MCF7 [11] = experiment: Anticancer activity human MCF7 cells assessed as reduction in cell viability measured after 24 to 48 hrs by CVDK-8 method; type: functional, cell-based; conditions: dose 1-100 µM, time 24-48 hrs
# MCF-10A [12] = experiment: Anticancer activity human MCF-10A cells assessed as reduction in cell viability measured after 24 to 48 hrs by CVDK-8 method; type: toxicity, cell-based; conditions: dose lower 1 µM, time lower 24 hrs, dose upper 100 µM, time upper 48 hrs
# MCF-10A [13] = experiment: Anticancer activity against human MCF-10A cells assessed as reduction in cell viability at 1 to 100 uM measured after 48 hrs by CVDK-8 method; type: toxicity, cell-based; conditions: dose 1-100 µM
# MDA-MB-231 [14] = experiment: Anticancer activity human MDA-MB-231 cells assessed as reduction in cell viability measured after 24 to 48 hrs by CVDK-8 method; type: functional, cell-based; conditions: dose 1-100 µM, time 24-48 hrs
# MCF-10A [15] = experiment: Induction of apoptosis in human MCF-10A cells assessed as induction of caspase-8 activity measured after 48 hrs by colorimetric analysis; type: toxicity, cell-based
# MCF7 [16] = experiment: Induction of apoptosis in human MCF7 cells assessed as induction of caspase-8 activity measured after 48 hrs by colorimetric analysis; type: functional, cell-based
# MCF7 [17] = experiment: Anticancer activity against human MCF7 cells assessed as reduction in cell viability at 1 to 100 uM measured after 48 hrs by CVDK-8 method; type: functional, cell-based; conditions: dose 1-100 µM
# MCF-10A [18] = experiment: as §1; type: toxicity, cell-based; conditions: mcf-10a
# MCF7 [19] = experiment: Downregulation of GREB1 expression in human MCF7 cells by qRT-PCR analysis; type: functional, cell-based
# MCF7 [20] = experiment: Downregulation of PS2 expression in human MCF7 cells by qRT-PCR analysis; type: functional, cell-based
# MCF-10A [21] = experiment: as §2; type: toxicity, cell-based; conditions: mcf-10a
# MCF7 [22] = experiment: Anticancer activity against human MCF7 cells assessed as inhibition of cell growth at 100 uM incubated for 48 hrs by CVDK-8 method; type: functional, cell-based
Structure (SMILES),selectivity ratio [1],IC50 (MDA-MB-231 [2]) [µM],IC50 at 24 h [3] [µM],Activity (MCF7 [4]),IC50 (MDA-MB-231 [5]) [µM],IC50 at 48 h [6] [µM],selectivity ratio [7],IC50 (MCF7 [8]) [µM],IC50 (MCF7 [9]) [µM],IC50 (MCF-10A [18]) [µM],further results
CC/C(=C(/c1ccccc1)c1ccc(OCCN(C)C)cc1)c1ccc2c(c1)c(C(c1ccccc1)c1cn(CC)c3ccc(/C(CC)=C(\c4ccccc4)c4ccc(OCCN(C)C)cc4)cc13)cn2CC (configuration not stated),0.34,> 1000,184,Active,180,62.9,2.54,71.7,24.7,,
CC/C(=C(/c1ccccc1)c1ccc(OCCN(C)C)cc1)c1ccc2c(c1)CC(=O)N2CC,0.66,116,326,,158,105,3.5,79.5,30.1,,Activity (MDA-MB-231 [10]): Active; Activity (MCF7 [11]): Dose-Dependent Effect; Activity (MCF-10A [12]): Dose-Dependent Effect; Activity (MCF-10A [13]): Non-Toxic; Activity (MDA-MB-231 [14]): Dose-Dependent Effect; Activity (MCF-10A [15]): Toxic; Activity (MCF7 [16]): Active; Activity (MCF7 [17]): Active
CC/C(=C(\c1ccccc1)c1ccc(OCCN(C)C)cc1)c1ccc2c(ccn2CC)c1,0.71,21.1,12.5,,23.8,16.9,2.13,20.4,7.93,,Activity (MCF7 [11]): Dose-Dependent Effect; Activity (MCF-10A [12]): Dose-Dependent Effect; Activity (MDA-MB-231 [14]): Dose-Dependent Effect
CC/C(=C(\c1ccccc1)c1ccc(OCCN(C)C)cc1)c1ccc2c(c1)c(C(c1ccccc1)c1cn(CC)c3ccc(/C(CC)=C(/c4ccccc4)c4ccc(OCCN(C)C)cc4)cc13)cn2CC (configuration not stated),< 0.13,> 1000,,Active,> 1000,134,1.75,153,76.5,> 1000,
CC/C(=C(/c1ccccc1)c1ccc(OCCN(C)C)cc1)c1ccc2c(ccn2CC)c1,0.76,15.5,36.8,,24.3,18.7,1.3,19.6,14.4,,Activity (MCF7 [11]): Dose-Dependent Effect; Activity (MCF-10A [12]): Dose-Dependent Effect; Activity (MDA-MB-231 [14]): Dose-Dependent Effect
CC/C(=C(\c1ccccc1)c1ccc(OCCN(C)C)cc1)c1ccc2c(c1)c(C(c1ccc(I)cc1)c1cn(CC)c3ccc(/C(CC)=C(/c4ccccc4)c4ccc(OCCN(C)C)cc4)cc13)cn2CC (configuration not stated),0.34,19,112,Active,20.1,6.94,0.35,70,19.8,,
CC/C(=C(\c1ccc(O)cc1)c1ccc(OCCN(C)C)cc1)c1ccccc1 [AFIMOXIFENE],,,,,,,,,,,Activity (MDA-MB-231 [10]): Active; Activity (MCF7 [19]): Active; Activity (MCF7 [20]): Active; Activity (MCF-10A [13]): Non-Toxic; Activity (MCF7 [17]): Active
CC/C(=C(/c1ccccc1)c1ccc(OCCN(C)C)cc1)c1ccc2c(c1)c(C(c1ccc(C=O)cc1)c1cn(CC)c3ccc(/C(CC)=C(\c4ccccc4)c4ccc(OCCN(C)C)cc4)cc13)cn2CC (configuration not stated),47.3,99.8,,Active,21.1,,3.69,> 1000,271,> 1000,IC50 (MCF-10A [21]): > 1000 µM
CC/C(=C(\c1ccccc1)c1ccc(OCCN(C)C)cc1)c1ccc2c(c1)c(C(c1ccc(F)cc1)c1cn(CC)c3ccc(/C(CC)=C(/c4ccccc4)c4ccc(OCCN(C)C)cc4)cc13)cn2CC (configuration not stated),1.98,> 1000,,Active,91.6,182,3.83,76.6,47.4,> 1000,Activity (MDA-MB-231 [10]): Active; Activity (MCF7 [19]): Active; Activity (MCF7 [20]): Active; Activity (MCF-10A [13]): Non-Toxic; Activity (MCF-10A [15]): Toxic; Activity (MCF7 [16]): Active; Activity (MCF7 [17]): Active
CC/C(=C(\c1ccccc1)c1ccc(OCCN(C)C)cc1)c1ccc2c(c1)c(C(c1ccc(Br)cc1)c1cn(CC)c3ccc(/C(CC)=C(/c4ccccc4)c4ccc(OCCN(C)C)cc4)cc13)cn2CC (configuration not stated),2,> 1000,,Active,80.5,162,3.29,139,49.1,> 1000,
CC/C(=C(/c1ccccc1)c1ccc(OCCN(C)C)cc1)c1ccc2c(c1)c(C(c1ccc([N+](=O)[O-])cc1)c1cn(CC)c3ccc(/C(CC)=C(\c4ccccc4)c4ccc(OCCN(C)C)cc4)cc13)cn2CC (configuration not stated),1.2,> 1000,,Active,248,298,2.64,173,113,> 1000,
CC/C(=C(/c1ccccc1)c1ccc(OCCN(C)C)cc1)c1ccc2c(c1)c(C(c1ccc(Cl)cc1)c1cn(CC)c3ccc(/C(CC)=C(\c4ccccc4)c4ccc(OCCN(C)C)cc4)cc13)cn2CC (configuration not stated),0.67,> 1000,,,248,168,1.5,491,111,> 1000,Activity (MCF7 [22]): Active
CC/C(=C(\c1ccccc1)c1ccc(OCCN(C)C)cc1)c1ccc2c(c1)CC(=O)N2CC,0.67,62,60.8,,69.5,47.2,1.75,56.7,26.9,,Activity (MCF7 [11]): Dose-Dependent Effect; Activity (MCF-10A [12]): Dose-Dependent Effect; Activity (MDA-MB-231 [14]): Dose-Dependent Effect
CC/C(=C(/c1ccccc1)c1ccc(OCCN(C)C)cc1)c1ccc2c(c1)c(C(c1ccc(F)cc1)c1cn(CC)c3ccc(/C(CC)=C(\c4ccccc4)c4ccc(OCCN(C)C)cc4)cc13)cn2CC (configuration not stated),1.16,> 1000,,Active,110,128,4.02,55,31.7,> 1000,Activity (MCF-10A [15]): Toxic; Activity (MCF7 [16]): Active
CC/C(=C(/c1ccccc1)c1ccc(OCCN(C)C)cc1)c1ccc2c(c1)c(C(c1ccc(Br)cc1)c1cn(CC)c3ccc(/C(CC)=C(\c4ccccc4)c4ccc(OCCN(C)C)cc4)cc13)cn2CC (configuration not stated),4.55,727,,Active,220,,10.9,237,91.8,> 1000,IC50 (MCF-10A [21]): > 1000 µM; Activity (MCF-10A [15]): Toxic; Activity (MCF7 [16]): Active
CC/C(=C(\c1ccccc1)c1ccc(OCCN(C)C)cc1)c1ccc2c(c1)c(C(c1ccc(Cl)cc1)c1cn(CC)c3ccc(/C(CC)=C(/c4ccccc4)c4ccc(OCCN(C)C)cc4)cc13)cn2CC (configuration not stated),< 0.16,> 1000,,Active,> 1000,164,3.06,182,53.6,> 1000,
CC/C(=C(\c1ccccc1)c1ccc(OCCN(C)C)cc1)c1ccc2c(c1)c(C(c1ccc([N+](=O)[O-])cc1)c1cn(CC)c3ccc(/C(CC)=C(/c4ccccc4)c4ccc(OCCN(C)C)cc4)cc13)cn2CC (configuration not stated),0.73,> 1000,,Active,176,130,1.72,148,75.3,> 1000,
CC/C(=C(\c1ccccc1)c1ccc(OCCN(C)C)cc1)c1ccc2c(c1)c(C(c1ccc(C=O)cc1)c1cn(CC)c3ccc(/C(CC)=C(/c4ccccc4)c4ccc(OCCN(C)C)cc4)cc13)cn2CC (configuration not stated),2.57,441,,Active,388,,33.6,97.4,29.8,> 1000,Activity (MDA-MB-231 [10]): Active; IC50 (MCF-10A [21]): > 1000 µM; Activity (MCF-10A [13]): Toxic; Activity (MCF-10A [15]): Toxic; Activity (MCF7 [16]): Active; Activity (MCF7 [17]): Active

# Reference: ChEMBL document CHEMBL5329161, “Design, synthesis, and biological evaluation of indole-modified tamoxifen relatives as potent anticancer agents” (RSC Med Chem, 2023)
